Data set [1] can be described thus: Sulfonation of 7-hydroxycoumarin derivatives by rat liver cytosol. Conditions: male, Wistar, rat, pH 7.4.
Another data set has as its system rat liver cytosol. The data set is described as above. Conditions: rat liver cytosol; for Vmax: value (95 % confidence interval); for sulfonation efficiency, intrinsic clearance (Vmax/Km): rank among species.
Data set [2] can be described thus: Sulfonation of 7-hydroxycoumarin derivatives by dog liver cytosol. The note with it: both, Beagle, dog, liver cytosol, pH 7.4.
Data set [3] deals with dog liver cytosol. The data set is described as above. Conditions: for intrinsic clearance relative to the highest intrinsic clearance value: dog cytosol, highest value = 1 by rat cytosol; for intrinsic clearance (Vmax/Km): rank among species; for Vmax: value (95 % confidence interval).
A short description of data set [4]: Sulfonation of 7-hydroxycoumarin derivatives by rabbit liver cytosol. The note with it: female, Dutch belted, rabbit, liver cytosol, pH 7.4.
A further data set has as its system rabbit liver cytosol. Described as above. The note with it: rabbit liver cytosol; for Vmax: value (95 % confidence interval).
Data set [5] can be described thus: Sulfonation of 7-hydroxycoumarin derivatives by human liver cytosol. Conditions: male, human, liver cytosol, pH 7.4.
The subject of the next data set is human liver cytosol. The description is as above. The note with it: human liver cytosol; value (95 % confidence interval).
Data set [6] can be described thus: Sulfonation of 7-hydroxycoumarin derivatives by mouse liver cytosol. Conditions: DBA/2N/Kuo, mouse, pH 7.4.
Data set [7] deals with mouse liver cytosol. The data set is described as above. Conditions: for Vmax: mouse liver cytosol, value (95 % confidence interval); for sulfonation rate: 10 μM substrate.
Data set [8] can be described thus: Sulfonation of 7-hydroxycoumarin derivatives by sheep liver cytosol. The note with it: female, sheep, liver cytosol, pH 7.4.
For another data set, the system named is sheep liver cytosol. Described as above. The note with it: sheep liver cytosol; value (95 % confidence interval).
Data set [9] is described as follows: Sulfonation of 7-hydroxycoumarin derivatives by pig liver cytosol. The note with it: female, pig, liver cytosol, pH 7.4.
Another data set relates to pig liver cytosol. Described as above. The note with it: pig liver cytosol; value (95 % confidence interval).
The test system of data set [10] is liver cytosol of human, rat, mouse, rabbit, dog, pig and sheep. The class given is in vitro ADME. Conditions: for sulfonation rate: 10 μM substrate, compared among derivatives over all species.
The subject of data set [11] is mouse liver cytosol. The note with it: pH 7.4.
For data set [12], the system named is dog liver cytosol.
Another data set is described as follows: in vitro. The note with it: male, Wistar, rat, pH 7.4.

SMILES strings stand for the structures. “Also recorded” adds a separate entry of the source. Like-named read-outs stand apart in the source and are kept apart here.

We go through 8 molecules from publication PMC7646200 (Xenobiotica; the fate of foreign compounds in biological …, 2020).

For orientation: Km means the substrate concentration at which the rate is half of its maximum.

For the molecule `CCc1c(C)c2ccc(O)c(C)c2oc1=O` [compound 6, 3-ethyl-4,8-dimethyl-7-hydroxycoumarin], the Michaelis-Menten constant (Km) is 0.99 µM in data set [1] (liver cytosol); 0.38 µM in data set [2]; 1.7 µM in data set [4]; 0.51 µM in [5]; 0.14 µM in [6] (liver cytosol); 0.48 µM in [8]. The Km in [9] was found to be 1.8 µM. The Vmax in the data set with rat liver cytosol was 130 (73–180) nmol/(min * g protein); with dog liver cytosol [3] (dog liver cytosol), 630 (280–980) nmol/(min * g protein); in the data set on rabbit liver cytosol it was 280 (200–350) nmol/(min * g protein); in the data set with human liver cytosol, 99 (74–130) nmol/(min * g protein); in the data set with mouse liver cytosol [7], 14 (11–17) nmol/(min * g protein); in the data set on sheep liver cytosol, 280 (190–370) nmol/(min * g protein). Moreover, the Vmax in the data set on pig liver cytosol is 46 (22–69) nmol/(min * g protein). Also, in the data set on dog liver cytosol [3], the “intrinsic clearance relative to the highest intrinsic clearance value” is reported as more than 70%. Moreover, the sulfonation rate entry with dog liver cytosol [3] (dog liver cytosol, 10 μM substrate) is reported as “Slow”. For the same molecule, the “intrinsic clearance (Vmax/Km)” value with dog liver cytosol [3] (dog liver cytosol) is “highest”.
On to `O=c1oc2cc(O)ccc2cc1-c1ccc(O)cc1` [compound 9, 3-(4-hydroxyphenyl)-7-hydroxycoumarin], for which the sulfonation rate entry in the data set on rat liver cytosol (10 μM substrate) is listed as “Slow”. In addition, the Km in data set [2] turned out to be 0.051 µM; in data set [4], 0.95 µM; in [6] it was 0.46 µM; in data set [8] it was 1.27 µM. Besides, the “intrinsic clearance relative to the highest intrinsic clearance value” in the data set with dog liver cytosol [3] is more than 70%. In addition, the “intrinsic clearance (Vmax/Km)” value in the data set with dog liver cytosol [3] (dog liver cytosol) is listed as “highest”. Besides, the Vmax is on record as 88 (65–120) nmol/(min * g protein) with dog liver cytosol [3] (dog liver cytosol), 45 (30–62) nmol/(min * g protein) in the data set with rabbit liver cytosol, 160 (130–190) nmol/(min * g protein) in the data set on mouse liver cytosol [7] and 41 (26–56) nmol/(min * g protein) in the data set with sheep liver cytosol.
Turning to `Cc1ccc(-c2cc3ccc(O)cc3oc2=O)cc1` [compound 8, 3-(4-methylphenyl)-7-hydroxycoumarin], the sulfonation rate result in data set [10] is recorded as “highest sulfonation rates”; in the data set on rabbit liver cytosol (10 μM substrate), “Slow”. The Km was determined as 0.36 µM in [1]; 0.17 µM in data set [2]; 7.3 µM in data set [4]; 0.27 µM in data set [5]; 5.3 µM in data set [8]; 2.8 µM in data set [9]. For the same molecule, the “sulfonation efficiency, intrinsic clearance (Vmax/Km)” value (shortened to “sulfonation efficiency”) in the data set with rat liver cytosol was “efficiently”. The Vmax in the data set with rat liver cytosol is 170 (92–260) nmol/(min * g protein); with dog liver cytosol [3] (dog liver cytosol), 56 (38–77) nmol/(min * g protein); in the data set with rabbit liver cytosol, 310 (35–580) nmol/(min * g protein); in the data set on human liver cytosol, 6.5 (1.6–36) nmol/(min * g protein); in the data set with mouse liver cytosol [7], 26 (16–36) nmol/(min * g protein); in the data set on sheep liver cytosol, 154 (83–230) nmol/(min * g protein). Besides, the Vmax in the data set on pig liver cytosol was 12 (2–22) nmol/(min * g protein).
As for `COc1cc2ccc(=O)oc2cc1O` [compound 3, 6-methoxy-7-hydroxycoumarin], the Vmax is 540 (510–570) nmol/(min * g protein) with rat liver cytosol; 420 (390–450) nmol/(min * g protein) in the data set on dog liver cytosol [3] (dog liver cytosol); 160 (110–220) nmol/(min * g protein) in the data set on rabbit liver cytosol; 155 (6–300) nmol/(min * g protein) with human liver cytosol; “No MM” in the data set with mouse liver cytosol [7]; 260 (240–290) nmol/(min * g protein) with sheep liver cytosol. Further, the Vmax with pig liver cytosol is recorded as 15 (10–20) nmol/(min * g protein). Besides, the Km entry is “no MM” in the data set on mouse liver cytosol [11]; 0.22 µM in data set [2]; 0.99 µM in [4]; 3.5 µM in data set [5]; 0.65 µM in “in vitro”; 0.13 µM in [8]. Further, the Km in data set [9] was found to be 0.11 µM. In addition, in the data set with dog liver cytosol [12], the “intrinsic clearance (Vmax/Km)” value is given as “highest”.
Consider `CN(C)c1ccc(-c2cc3ccc(O)cc3oc2=O)cc1` [compound 12, 3-(4-dimethylaminophenyl)-7-hydroxycoumarin], for which, in data set [10], the sulfonation rate entry was “highest sulfonation rates”. Moreover, the “intrinsic clearance (Vmax/Km), similarity between species” value in data set [10] (compared with other 7-hydroxycoumarin derivatives) is recorded as “more similar between species”. Moreover, the Km amounted to 0.67 µM in data set [1]; 0.44 µM in [2]; 0.67 µM in data set [4]; 0.39 µM in [5]; 0.49 µM in data set [6]; 0.89 µM in data set [8]. Moreover, the Km in data set [9] was 2.8 µM. The Vmax is given as 520 (280–790) nmol/(min * g protein) with rat liver cytosol; 600 (330–970) nmol/(min * g protein) with dog liver cytosol [3] (dog liver cytosol); 290 (90–560) nmol/(min * g protein) in the data set with rabbit liver cytosol; 180 (75–320) nmol/(min * g protein) in the data set with human liver cytosol; 230 (64–540) nmol/(min * g protein) in the data set with mouse liver cytosol [7]; 440 (360–570) nmol/(min * g protein) in the data set with sheep liver cytosol. Further, the Vmax with pig liver cytosol was 210 (140–290) nmol/(min * g protein). Also, the “intrinsic clearance (Vmax/Km)” value in the data set on dog liver cytosol [3] (dog liver cytosol) is “highest”.
With `CCc1c(C)c2ccc(O)cc2oc1=O` [compound 5, 3-ethyl-4-methyl-7-hydroxycoumarin], the Vmax entry is given as “No MM” in the data set with rat liver cytosol; 360 (260–460) nmol/(min * g protein) with dog liver cytosol [3] (dog liver cytosol); 58 (21–95) nmol/(min * g protein) in the data set on rabbit liver cytosol; 97 (76–120) nmol/(min * g protein) in the data set with human liver cytosol; 5.3 (3.8–6.8) nmol/(min * g protein) in the data set on mouse liver cytosol [7]; 340 (220–460) nmol/(min * g protein) with sheep liver cytosol. In the data set on pig liver cytosol, the Vmax is 26 (12–40) nmol/(min * g protein). Further, the Km in data set [2] came out at 0.45 µM; in data set [4], 1.3 µM; in data set [5], 2.1 µM; in data set [6] (liver cytosol), 0.11 µM; in data set [8], 1.6 µM; in data set [9] it was 1.5 µM. Further, the “intrinsic clearance (Vmax/Km)” value in the data set on dog liver cytosol [3] (dog liver cytosol) is recorded as “highest”. Moreover, in the data set with mouse liver cytosol [7] (male mouse liver cytosol), the sulfonation rate result is recorded as “Slow”.
With `Cc1c(C)c2ccc(O)c(C)c2oc1=O` [compound 7, 3,4,8-trimethyl-7-hydroxycoumarin], the Km in [1] (liver cytosol) is 0.8 µM; in [2], 4.3 µM; in data set [5], 0.65 µM; in data set [6] (liver cytosol), 0.11 µM; in data set [8], 0.71 µM; in data set [9], 2.1 µM. Further, the “sulfonation efficiency” value with rat liver cytosol is “efficiently”. The Vmax is recorded as 440 (170–710) nmol/(min * g protein) with rat liver cytosol; 1300 (0–5200) nmol/(min * g protein) in the data set on dog liver cytosol [3] (dog liver cytosol); “No MM” with rabbit liver cytosol; 65 (54–76) nmol/(min * g protein) with human liver cytosol; 11 (6.8–14) nmol/(min * g protein) with mouse liver cytosol [7]; 300 (250–350) nmol/(min * g protein) in the data set with sheep liver cytosol. The Vmax in the data set with pig liver cytosol was 59 (28–91) nmol/(min * g protein). The sulfonation rate result in the data set on mouse liver cytosol [7] (male mouse liver cytosol) is reported as “Slow”.
In the case of `O=c1ccc2ccc(O)cc2o1` [compound 1, 7-hydroxycoumarin, reference compound], the Km in [1] (liver cytosol) was 0.18 µM; in [2] it was 0.27 µM; in data set [4], 1.7 µM; in [5] it was 1.9 µM; in [8] it was 0.41 µM; in data set [9], 4.3 µM. In the data set with rat liver cytosol, the “sulfonation efficiency” value is given as “efficiently; also recorded: highest intrinsic clearance”. In addition, the Vmax is listed as 410 (360–460) nmol/(min * g protein) in the data set with rat liver cytosol; 380 (330–440) nmol/(min * g protein) in the data set with dog liver cytosol [3] (dog liver cytosol); 200 (100–310) nmol/(min * g protein) with rabbit liver cytosol; 84 (26–140) nmol/(min * g protein) with human liver cytosol; 260 (210–320) nmol/(min * g protein) in the data set with mouse liver cytosol [7]; 250 (200–310) nmol/(min * g protein) with sheep liver cytosol. The Vmax in the data set with pig liver cytosol is 65 (29–100) nmol/(min * g protein). Moreover, the sulfonation rate result with mouse liver cytosol [7] (female mouse liver cytosol) and in the data set on mouse liver cytosol [7] (male mouse liver cytosol) was “Slow” in each case.
